# From patent US8946218B2, “CCR2 receptor antagonists, method for producing the same, and use thereof as medicaments” (Boehringer Ingelheim International GmbH, priority 2010, dated 2015)
# Molecular target: T1, CCR2 (Homo sapiens, UniProt P41597)
# T1 construct: Membranes were prepared from THP-1 cells; endogenous in cells; host or cells: THP-1 (human acute monocytic leukaemia cells), membrane preparation
# Experiment: Receptor membrane binding assay: [125I]MCP-1 binding to CCR2 on THP-1 cell membranes (SPA beads)
# Settings: THP-1 membranes, [125I]MCP-1, bound radioactivity after 8 h; read-out: hKi
# Procedure: The above exemplary substances have been tested for binding to CCR2 using a binding assay as outlined herein below:
# THP-1 cells (human acute monocytic leukaemia cells) were cultured under standardized conditions at 37° C. and 5% CO2 in a humidified incubator. THP-1 cells were cultivated in RPMI 1640 medium (Gibco 21875) containing 1% MEM-NEAA (Gibso 11140) 2 mM L-glutamine, 1.5 g/L sodium bicarbonate, 4.5 g/L glucose, 10 mM HEPES and 1.0 mM sodium pyruvate, 90%; 10% fetal calf serum (FCS Gibco 10500-064).
# Membranes were prepared from THP-1 cells. THP-1 cells were centrifuged at 300×g at 4° C. for 10 min. The cell pellet was resuspended in Phosphate Buffer Saline (PBS, including 10 μM Pefabloc and a protease inhibitor mix ‘complete’, Boehringer Mannheim (1 tablet/50 ml)), to a concentration of […]. The membrane preparation was performed by disrupting the cells by nitrogen […] (at 50 bar, for 1 h) in a “Nitrogen Bombe” (Parr Instrument). Cell debris was removed by centrifugation (800×g at 4° C., 1 min). The supernatant was centrifuged at 80000×g, 4° C. for 30 min to sediment the cell membranes. Usually 50 mg of protein (Bradford assay) were yielded from 1×10E9 cells. The membranes were resuspended in 25 mM HEPES, 25 mM MgCl2, 1 mM CaCl2, 10% Glycerine for storage in aliquots at −80° C. in 25 mM HEPES, 25 mM MgCl2, 1 mM CaCl2, 10% Glycerine and stored at −80° C.
# Receptor Membrane Binding Assay:
# Perkin Elmer NEX 332 Jod 125 MCP-1, Stock: 2200 Ci/mmol solved in 2000 μl assay buffer, stored at −20° C. THP-1 membrane were adjusted with 25 mM HEPES, pH 7.2; 5 mM MgCl2; 0.5 mM CaCl2; 0.2% BSA assay buffer to a concentration of 2.5 μg/15 μl. Amersham Biosciences PVT-WGA Beads (RPNQ0001) were adjusted with assay buffer to a concentration of 0.24 mg/30 μl. For preparation of the membrane-bead-suspension membranes and beads were incubated for 30 min at RT under rotation (60 rpm) with a ratio of 1:2. Test compounds dissolved in 100% DMSO to a concentration of 10 mM and are further diluted with 100% DMSO to 1 mM. All additional compound dilutions were obtained with assay buffer, final 1% DMSO. Compounds, membrane-bead-suspension and [125I]MCP-1 (ca. 25000 cpm/10 μl) were incubated. Bound radioactivity was determined by scintillation counter after 8 h. Determination of affinity of test compounds (dissociation constant hKi) is calculated by iterative fitting of experimental data using the “easy sys” program, which is based on law of mass action (Schittkowski K. (1994), Numerische Mathematik, Vol. 68, 129-142).
# T1 sequence (P41597 whole entry): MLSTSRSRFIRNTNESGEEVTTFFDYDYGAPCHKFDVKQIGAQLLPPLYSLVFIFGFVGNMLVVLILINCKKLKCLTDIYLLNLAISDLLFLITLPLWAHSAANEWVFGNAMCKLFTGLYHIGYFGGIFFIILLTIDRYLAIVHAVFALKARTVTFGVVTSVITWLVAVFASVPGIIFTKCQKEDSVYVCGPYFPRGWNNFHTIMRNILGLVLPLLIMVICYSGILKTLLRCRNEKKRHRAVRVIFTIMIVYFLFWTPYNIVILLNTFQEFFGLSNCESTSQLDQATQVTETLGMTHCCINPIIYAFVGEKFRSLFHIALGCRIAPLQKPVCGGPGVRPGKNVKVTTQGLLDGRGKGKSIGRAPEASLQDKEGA
row,Structure (SMILES),Ki [nM]
1,CO[C@H]1COCC[C@H]1NC1CCN(C(=O)c2ncnc(Nc3ccc4ccccc4c3)c2C)CC1 [Example 39],84
2,CO[C@H]1COCC[C@H]1NC1CCN(C(=O)c2cc(Nc3cccc(C(F)(F)F)c3)nc(C(F)(F)F)n2)CC1 [Example 33],36
3,CO[C@H]1COCC[C@H]1NC1CCN(C(=O)c2ncnc(Nc3ccc(Cl)c(C(F)(F)F)c3)c2C)CC1 [Example 31],5310
4,COc1nc(Nc2cccc(C(F)(F)F)c2)c(C)c(C(=O)N2CCC(NC3CCOCC3F)CC2)n1 (stereo not shown) [Example 33k],5
5,CO[C@@H]1COCC[C@@H]1NC1CCN(C(=O)c2ncnc(Nc3ccc(Cl)c(Cl)c3)c2C)CC1 [Example 17a],1
6,CO[C@@H]1COCC[C@@H]1NC1CCN(C(=O)c2nc(C3CC3)nc(Nc3ccc(Cl)c(Cl)c3)c2C)CC1 [Example 33o],0.2
7,CO[C@H]1COCC[C@H]1NC1CCN(C(=O)c2cc(Nc3cccc(C(F)(F)F)c3)ncn2)CC1 [Example 6],280
8,COc1ccc2cc(Nc3ncnc(C(=O)N4CCC(N[C@H]5CCOC[C@H]5OC)CC4)c3C)ccc2c1 [Example 36],70
9,COc1nc(Nc2ccc(Cl)c(Cl)c2)c(C)c(C(=O)N2CCC(N[C@@H]3CCOC[C@@H]3OC)CC2)n1 [Example 33b],0.7
10,COc1nc(Nc2cccc(C(F)(F)F)c2)c(C)c(C(=O)N2CCC(N[C@H]3CCOC[C@H]3OC)CC2)n1 [Example 33j],1
11,CO[C@@H]1COCC[C@@H]1NC1CCN(C(=O)c2ccnc(Nc3cccc(C(F)(F)F)c3)c2C)CC1 [Example 25],165
12,COC1COCCC1NC1CCN(C(=O)c2ncnc(Nc3cccc(C)c3)c2C)CC1 (stereo not shown) [Example 5],232
13,COc1nc(Nc2ccc(Cl)c(Cl)c2)c(C)c(C(=O)N2CCC(NC3CCOCC3)CC2)n1 [Example 33m],0.7
14,COC1COCCC1NC1CCN(C(=O)c2ncnc(Nc3cccc(C(F)(F)F)n3)c2C)CC1 (stereo not shown) [Example 4],110
15,CO[C@@H]1COCC[C@@H]1NC1CCN(C(=O)c2ncnc(Nc3ccc4cc(Br)ccc4c3)c2C)CC1 [Example 43],17
16,COc1cc(Nc2ncnc(C(=O)N3CCC(N[C@@H]4CCOC[C@@H]4OC)CC3)c2C)cc2ccccc12 [Example 41],196
17,Cc1c(Nc2ccc(Cl)c(Cl)c2)ncnc1C(=O)N1CCC(N[C@@H]2CCOC[C@@H]2F)CC1 [Example 33g],8
18,COc1c(Nc2cccc(C(F)(F)F)c2)ncnc1C(=O)N1CCC(N[C@H]2CCOC[C@H]2OC)CC1 [Example 20],26
19,COC1COCCC1NC1CCN(C(=O)c2ncnc(Nc3cccc(F)c3)c2C)CC1 (stereo not shown) [Example 14],146
20,CO[C@@H]1COCC[C@@H]1NC1CCN(C(=O)c2nc(C(F)(F)F)nc(Nc3ccc(Cl)c(Cl)c3)c2C)CC1 [Example 33c],0.2

row,Structure (SMILES),Ki [nM]
1,COc1nc(Nc2ccc(Cl)c(Cl)c2)c(C)c(C(=O)N2CCC(NC3CCOCC3F)CC2)n1 (stereo not shown) [Example 33h],2
2,Cc1c(Nc2ccc3ccccc3c2)ncnc1C(=O)N1CCC(N2CCC(N(C)S(C)(=O)=O)CC2)CC1 [Example 22],14
3,COc1nc(Nc2cccc(C(F)(F)F)c2)c(C)c(C(=O)N2CCC(NC3CCOCC3)CC2)n1 [Example 33w],3
4,CO[C@H]1COCC[C@H]1NC1CCN(C(=O)c2ccnc(Nc3cccc(C(F)(F)F)c3)c2C)CC1 [Example 26],46
5,CO[C@H]1COCC[C@H]1NC1CCN(C(=O)c2nc(C3CC3)nc(Nc3cccc(C(F)(F)F)c3)c2C)CC1 [Example 33v],0.4
6,Cc1c(Nc2ccc(Cl)c(Cl)c2)ncnc1C(=O)N1CCC(N[C@H]2CCOC[C@H]2F)CC1 [Example 33e],23
7,CO[C@@H]1COCC[C@@H]1NC1CCN(C(=O)c2cc(Nc3cccc(C(F)(F)F)c3)ncn2)CC1 [Example 7],138
8,CO[C@@H]1COCC[C@@H]1NC1CCN(C(=O)c2ncnc(Nc3ccc4ccccc4c3)c2C)CC1 [Example 35],26
9,COC1COCCC1NC1CCN(C(=O)c2ncnc(Nc3ccccc3)c2C)CC1 (stereo not shown) [Example 3],450
10,COc1ccc2ccc(Nc3ncnc(C(=O)N4CCC(N[C@@H]5CCOC[C@@H]5OC)CC4)c3C)cc2c1 [Example 40],84
11,CO[C@H]1COCC[C@H]1NC1CCN(C(=O)c2nc(C3CC3)nc(Nc3ccc(Cl)c(Cl)c3)c2C)CC1 [Example 33p],0.3
12,CO[C@H]1COCC[C@H]1NC1CCN(C(=O)c2nc(C(F)(F)F)nc(Nc3ccc(Cl)c(Cl)c3)c2C)CC1 [Example 33d],0.3
13,Cc1c(Nc2cc3ccccc3c(C)n2)ncnc1C(=O)N1CCC(N2CCC(N(C)S(C)(=O)=O)CC2)CC1 [Example 24],854
14,CO[C@@H]1COCC[C@@H]1NC1CCN(C(=O)c2ncnc(Nc3cccc(C(F)(F)F)c3)c2C)CC1 [Example 18],6
15,CO[C@@H]1COCC[C@@H]1NC1CCN(C(=O)c2nccc(Nc3cccc(C(F)(F)F)c3)c2C)CC1 [Example 27],5
16,COC1COCCC1NC1CCN(C(=O)c2ncnc(Nc3cccc(-c4ccncc4)c3)c2C)CC1 (stereo not shown) [Example 16],707
17,Cc1c(Nc2cccc(C(F)(F)F)c2)nc(C2CC2)nc1C(=O)N1CCC(N[C@H]2CCOC[C@H]2F)CC1 [Example 33u],1
18,COC1COCCC1NC1CCN(C(=O)c2ncnc(Nc3cc4ccccc4c(C)n3)c2C)CC1 (stereo not shown) [Example 34],1010
19,COC1COCCC1NC1CCN(C(=O)c2ncnc(N(C)c3cccc(C(F)(F)F)c3)c2C)CC1 (stereo not shown) [Example 10],481
20,COC1COCCC1NC1CCN(C(=O)c2ncnc(Nc3ccc(Cl)c(Cl)c3)c2C)CC1 (stereo not shown) [Example 9],2

row,Structure (SMILES),Ki [nM]
1,COc1c(Nc2cccc(C(F)(F)F)c2)ncnc1C(=O)N1CCC(N[C@@H]2CCOC[C@@H]2OC)CC1 [Example 19],49
2,Cc1c(Nc2cccc(C(F)(F)F)c2)ncnc1C(=O)N1CCC(N2CCOCC2)CC1 [Example 29],53
3,CO[C@@H]1COCC[C@@H]1NC1CCN(C(=O)c2ncnc(Nc3ccc(Cl)c(C(F)(F)F)c3)c2C)CC1 [Example 30],1480
4,Cc1c(Nc2cccc(C(F)(F)F)c2)nc(C2CC2)nc1C(=O)N1CCC(N[C@@H]2CCOC[C@@H]2F)CC1 [Example 33s],1
5,COC1COCCC1NC1CCN(C(=O)c2ncnc(Nc3cccc(OC(F)(F)F)c3)c2C)CC1 (stereo not shown) [Example 11],15
6,Cc1c(Nc2ccc(Cl)c(Cl)c2)nc(C2CC2)nc1C(=O)N1CCC(N[C@@H]2CCOC[C@@H]2F)CC1 [Example 33r],0.9
7,CO[C@@H]1COCC[C@@H]1NC1CCN(C(=O)c2nc(C3CC3)nc(Nc3cccc(C(F)(F)F)c3)c2C)CC1 [Example 33t],0.3
8,COc1c(Nc2cccc(C(F)(F)F)c2)ncnc1C(=O)N1CCC(N2CCC(N(C)S(C)(=O)=O)CC2)CC1 [Example 21],23
9,Cc1c(Nc2ccc(Cl)c(Cl)c2)nc(C(F)(F)F)nc1C(=O)N1CCC(NC2CCOCC2)CC1 [Example 33n],1
10,CO[C@H]1COCC[C@H]1NC1CCN(C(=O)c2ncnc(Nc3ccc(Cl)c(Cl)c3)c2C)CC1 [Example 17b],5
11,CO[C@@H]1COCC[C@@H]1NC1CCN(C(=O)c2cc(Nc3cccc(C(F)(F)F)c3)nc(C(F)(F)F)n2)CC1 [Example 32],64
12,COc1cc(Nc2ncnc(C(=O)N3CCC(N[C@H]4CCOC[C@H]4OC)CC3)c2C)cc2ccccc12 [Example 38],91
13,Cc1c(Nc2ccc(Cl)c(Cl)c2)nc(C2CC2)nc1C(=O)N1CCC(N[C@H]2CCOC[C@H]2F)CC1 [Example 33q],0.8
14,COC1COCCC1NC1CCN(C(=O)c2ncnc(Nc3ccc4ccccc4c3)c2C)CC1 (stereo not shown) [Example 23],17
15,COC1COCCC1NC1CCN(C(=O)c2ncnc(Nc3cccc(Cl)c3C)c2C)CC1 (stereo not shown) [Example 13],2990
16,COC1COCCC1NC1CCN(C(=O)c2ncnc(Nc3cc(Cl)ccc3C)c2C)CC1 (stereo not shown) [Example 12],728
17,CN(C1CCN(C2CCN(C(=O)c3cc(Nc4cccc(C(F)(F)F)c4)ncn3)CC2)CC1)S(C)(=O)=O [Example 8],398
18,CO[C@H]1COCC[C@H]1NC1CCN(C(=O)c2ncnc(Nc3ccc4cc(Br)ccc4c3)c2C)CC1 [Example 42],20
